Values quoted from earlier work in patent publication US6245797A, “Combination therapy for reducing the risks associated with cardio-and-cerebrovascular disease” (Merck & Co., Inc., priority 1998, dated 2001).

Settings: Scandinavian Simvastatin Survival Study, over the course of the 5 year study

CCC(C)(C)C(=O)O[C@H]1C[C@@H](C)C=C2C=C[C@H](C)[C@H](CC[C@@H]3C[C@@H](O)CC(=O)O3)[C@H]21 [simvastatin]
treated patients who die of their disease: 5%
